Consider one compound from EP4759807A1, “PROTEOLYSIS TARGETING CHIMERA COMPOUND FOR DEGRADING IRAK4 AND USE THEREOF” (Shenzhen Zhongge Biological Technology Co., Ltd., priority 2023, dated 2025).

This assay addresses T1, IRAK4 (Mus musculus, UniProt Q8R4K2).
T1 sequence (Q8R4K2 1-459): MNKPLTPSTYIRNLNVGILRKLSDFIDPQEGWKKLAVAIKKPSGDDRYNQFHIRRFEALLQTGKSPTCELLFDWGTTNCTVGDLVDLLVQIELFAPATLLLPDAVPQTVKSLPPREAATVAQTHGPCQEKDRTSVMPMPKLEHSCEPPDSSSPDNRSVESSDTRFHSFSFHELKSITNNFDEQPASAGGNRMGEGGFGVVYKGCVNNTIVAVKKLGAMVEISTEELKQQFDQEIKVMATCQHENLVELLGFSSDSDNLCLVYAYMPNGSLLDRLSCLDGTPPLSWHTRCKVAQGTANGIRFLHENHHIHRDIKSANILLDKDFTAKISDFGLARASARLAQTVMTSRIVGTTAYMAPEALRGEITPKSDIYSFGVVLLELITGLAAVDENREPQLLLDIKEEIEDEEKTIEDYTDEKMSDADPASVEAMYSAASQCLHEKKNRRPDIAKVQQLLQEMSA
The conditions noted are these: Balb/c mice, 24 h.

Procedure: Experiment materials: Female Balb/c mice, 6-8 weeks old, 18-20 grams were used in the experiment and were provided by Vital River Laboratory Animal Technology Co., Ltd.
Experimental method: The experiment started after the experimental animals were acclimated to the animal facility environment for 3 days. […] After 24 h, the animals were euthanized, and whole blood and spleen tissue were collected. The whole blood was temporarily placed on wet ice for subsequent PBMC extraction, and the spleen tissue was quickly placed in dry ice. PBMC extraction: 1.5 ml of red blood cell lysis buffer was added to the whole blood, and the obtained mixture was tapped with fingers for mixing, placed at room temperature in the dark for 5 min, and centrifuged at 400 g for 5 min, and the supernatant was discarded. The above steps were repeated twice. Then, 1.5 ml of DPBS was added and mixed uniformly. The mixture was centrifuged at 400 g for 5 min, and the obtained precipitate was PBMC. The PBMC was stored in a -80°C refrigerator for subsequent Western blot analysis. PBMC sample processing: The PBMC samples were placed on wet ice. 50 µL of lysis buffer was separately added to lyse the samples for 30 min, and the mixture was centrifuged at 12500 rpm for 15 min. The protein was quantified by the BCA method. […] The protein was quantified by BCA method. […]

On to `Cn1c(=O)n(C2CCC(=O)NC2=O)c2cccc(N3CCC(N4CCN(C[C@H]5CC[C@H](n6cc(-n7cc(-c8cnn9ccc(N%10CCC[C@H](O)C%10)nc89)nn7)c(C(F)F)n6)CC5)CC4)CC3)c21` (some centres unmarked) [Example 146], for which, for the setting “single oral dose 10, 30, 100 mg/kg, compared with the blank control group”, the “expression level of IRAK4 protein in the spleen and PBMC” value is reported as “significantly inhibit”. In addition, under “single oral dose, three doses of 10, 30, and 100 mpk, compared with KT474”, the “proteolysis ability for spleen IRAK4” value is “significantly superior to KT474”.
